Molecule `CC(=O)c1ccc2c(c1)CCO2` had a melting point of 62 to 64 °C.

With `COc1ccc(Br)c2c1C(=O)C2`, the melting point was determined as 74 °C.

In the case of `CCCCCCCOC(=O)CCC`, the melting point was -57.5 °C.

On to `c1ccc(-c2ccc3cc4ccc(-c5ccccc5)nc4cc3n2)cc1`, for which the melting point stood at 279 °C.

The molecule `Cc1nc(-c2ccncc2)sc1C(=O)O` displayed a melting point of 305 °C.

`O=S(=O)(Nc1c(F)c(F)cc(F)c1F)C(F)(F)F` registered a melting point of 95 °C.

Turning to `CC(C)(C)c1ccccc1N`, the melting point was -60 °C.

Take `Cc1nc(C)c(CO)s1`: the melting point lay within 56 to 57 °C.

For `O=C(O)c1ccc(Oc2ccccc2)nc1`, the melting point turned out to be 164 °C.

For `CC(=O)OCC1OC(C(N)=O)C(OC(C)=O)C(OC(C)=O)C1OC(C)=O` (stereo not drawn), the melting point was in the range of 127 to 130 °C.

Molecule `CCNC(=O)NC(=O)C(C#N)=NOC` gave a melting point of 161 °C.

For the molecule `CCCCOC(=O)CC(CC(=O)OCCCC)(OC(C)=O)C(=O)OCCCC`, the melting point was -59 °C.

The molecule `Cc1ccc(NC(=S)Nc2ccc(C)cc2)cc1` showed a melting point of 183 °C.

As to `Cc1onc(-c2ccccc2)c1C(=O)CBr`, the melting point lay within 46 to 48 °C.

`NC(=S)Nc1ccc(Cl)cc1` displayed a melting point of 177 to 181 °C.

In the case of `CSc1nc2cc([N+](=O)[O-])ccc2[nH]1`, the melting point lay in the range of 211 to 212 °C.

In the case of `O=S(=O)(Cl)c1csc2ccccc12`, the melting point fell in the range of 86 to 88 °C.

`Cc1ccc(Oc2cccc(F)c2C#N)cc1` registered a melting point of 93 to 95 °C.

On to `COc1ccccc1NC(=O)c1cnc(C(C)(C)C)cn1`, for which the melting point was 78 °C.

Molecule `CC(=O)c1ccc(C(C)=O)cc1` registered a melting point of 112 °C.

The molecule `CC(C)Cc1ccc(C(=O)C(C)Cl)cc1` (stereo not drawn) returned a melting point of 52 to 54 °C.

Take `Nc1c(Br)cc(Br)c(Cl)c1C(=O)O`: the melting point lay in the range of 212 to 215 °C.

Turning to `O=C(OCc1ccccc1Br)ON1C(=O)CCC1=O`, the melting point turned out to be 107 °C.

`O=C(C(=S)Nc1ccc(Br)cc1)c1ccccc1` gave a melting point of 118 °C.

Turning to `CC(O)C(NC(=O)OCc1ccccc1)C(=O)O` (stereo not drawn), the melting point stood at 103 °C.

Take `O=C(CCCNC(=O)CCCCC(=O)NCCCC(=O)NO)NO`: the melting point amounted to 163 °C.

As for `CCC(O)CN` (stereo not drawn), the melting point came to 3 °C.

`c1ccc(C2Nc3ccccc3C2c2ccccc2)cc1` (stereo not drawn) gave a melting point of 173 °C.

With `O=C(O)c1cc([N+](=O)[O-])cc(S(=O)(=O)Nc2ccccc2)c1`, the melting point is 177 °C.

Molecule `COc1cc(C)oc(=O)c1` displayed a melting point of 86 °C.

In turn, `CCOC(=O)c1ccc(OC)cn1` yielded a melting point of 39 °C.

With `Cc1cc(C(F)(F)F)n2nc(N)c(/N=N/c3cccc4ccccc34)c2n1`, the melting point is 236 °C.

`O=C(O)CSCCOc1ccccc1` gave a melting point of 49 to 52 °C.

The molecule `CP(=O)(c1ccccc1)c1ccccc1` yielded a melting point of 113 °C.

Turning to `OCc1ccc2[nH]cnc2c1`, the melting point lay within 129 to 131 °C.

The molecule `Cc1nn(C)c(N2CCOCC2)c1C=O` came in with a melting point of 74 to 76 °C.

Regarding `N#Cc1cc([N+](=O)[O-])cc(Br)c1N`, the melting point was 188 °C.

For `O=C(O)c1cc(I)ccc1Cl`, the melting point was 161 to 163 °C.

In turn, `CC=CC(=O)OC1CC2OC3C=C(C)C(=O)CC3(C)C1(C)C21CO1` (stereo not drawn) came in with a melting point of 118 °C.

On to `Cc1ccc(C(=O)CBr)c(C)c1`, for which the melting point was found to be 44 °C.

Molecule `COc1cc(/C=N/N=C/c2ccc(OCc3ccccc3)c(OC)c2)ccc1OCc1ccccc1` yielded a melting point of 216 °C.

`CC1(C)CCC2(C(=O)O)C(O)CC3(C)C(=CCC4C5(C)CCC(O)C(C)(C=O)C5CCC43C)C2C1` (stereo not drawn) registered a melting point of 294 °C.

`CN(CC(=O)O)C(=N)N` showed a melting point of 255 °C.

Molecule `CCCC[N+](=O)[O-]` showed a melting point of -81.3 °C.

For the molecule `CN(C)CCOc1ccccc1N`, the melting point lay in the range of 37 to 40 °C.

Consider `Cc1cc(O)c(C)cc1N`, for which the melting point was found to be 242 °C.

On to `N#C/C(=N/Nc1ccc(Br)cc1)c1nc(-c2ccccc2)cs1`, for which the melting point was determined as 169 °C.

`NNC(=O)C=Cc1ccc(C=CC(=O)NN)cc1`: the melting point was 258 to 260 °C.

For `CC1C(=O)NC(=O)C1(C)C` (stereo not drawn), the melting point lay within 117 to 122 °C.

Consider `CCC1CC(OC(=O)c2ccc([N+](=O)[O-])cc2)CC(C)(C)N1O` (stereo not drawn), for which the melting point lay in the range of 145 to 147 °C.

`CCC(C1CCCCC1)C1CCCCC1`: the melting point was -23.5 °C.

For `OCCOc1ccc(OCCO)cc1`, the melting point was 104 to 107 °C.

`CCC1(O)CCCCC1` came in with a melting point of 34.5 °C.

Molecule `CNCc1ccccc1` displayed a melting point of -24 °C.

`Cn1nc(C(=O)Cl)cc1-c1ccco1` showed a melting point of 60 to 61 °C.

Molecule `CC1CCC(C(C)C)C(OC(=O)C(Cc2ccccc2)c2ccccc2)C1` (stereo not drawn) registered a melting point of 101 °C.

For `C=C(C)CCC=C(C)C`, the melting point was -70 °C.

`O=C(Cc1ccccc1)C(Cc1ccccc1)=NNc1ccc([N+](=O)[O-])cc1` returned a melting point of 174 °C.

As for `Cc1cncc(C)n1`, the melting point came out at 47.5 °C.

Molecule `CC=Cc1cccc(OC)c1O` came in with a melting point of 81 °C.

As for `O=C(O)c1cc(-c2ccc(Br)cc2)oc1C(F)(F)F`, the melting point was in the range of 201 to 203 °C.

On to `COc1cccc(C=O)c1OC`, for which the melting point was 52 °C.

Turning to `Cc1nc(CC(=O)O)c(C)s1`, the melting point fell in the range of 110 to 113 °C.

`NC(=O)c1cnc2ccccc2n1` yielded a melting point of 195 °C.

Regarding `CC12CCC3C(CCC4=CC(=O)C=CC43O)C1CCC2=O` (stereo not drawn), the melting point was 219 to 221 °C.

In turn, `CC(C)(C)C1=CC(=NO)C=C(C(C)(C)C)C1=O` showed a melting point of 219 °C.

For `CCCCCCCCCCCCCCCCCBr`, the melting point was found to be 32 °C.

On to `O=C(CBr)c1c(Cl)cc(C(F)(F)F)cc1Cl`, for which the melting point lay in the range of 46 to 48 °C.

Molecule `FC(F)(Br)C(F)(F)C(F)(F)C(F)(F)C(F)(F)C(F)(F)C(F)(F)C(F)(F)Br` showed a melting point of 40 °C.

On to `CCC(C)(C)OC(N)=O`, for which the melting point was determined as 86 °C.

`FC(F)(F)c1nnc(S)n1-n1cccc1`: the melting point worked out at 165 °C.

`c1ccc(-c2nnc3n2NC(c2ccccc2)S3)cc1` (stereo not drawn) registered a melting point of 83 °C.

`S=C(Nc1ccccc1)C(=S)Nc1ccccc1` registered a melting point of 134 to 135 °C.

Take `CC(CCC(=O)O)C1CCC2C(C(=O)O)C(C3(C)CCCCC3C(=O)O)CCC12C` (stereo not drawn): the melting point lay within 265 to 267 °C.

For the molecule `O=C(O)Cc1ccc(Oc2ccccc2)cc1`, the melting point was 79 to 81 °C.

In turn, `CC1(C)N=C(N)C(C)(C)N1O` had a melting point of 225 to 228 °C.

`COC(=O)c1ccc2c(c1)CC1(CCC(c3ccc(C(C)(C)C)cc3)CC1)C2` (stereo not drawn) showed a melting point of 118 °C.

As for `Nc1ccc(N=Nc2ccc(S(N)(=O)=O)cc2)c(N)c1`, the melting point is 250 °C.

In turn, `Nc1c(Br)cc(Br)cc1Cc1ccccc1` had a melting point of 195 °C.

The molecule `c1ccc(-c2ccc(-c3nnc(-c4ccc(-c5ccccc5)cc4)o3)cc2)cc1` registered a melting point of 237 °C.

The molecule `N#Cc1cc([N+](=O)[O-])ccc1Sc1nnc(N)s1` gave a melting point of 245 to 246 °C.

As to `C/C(=N\Cc1cccnc1)c1c(O)c2ccccc2n(-c2ccccc2)c1=O`, the melting point was in the range of 221 to 222 °C.

As for `COC(=O)c1ccc2cc[nH]c2c1`, the melting point worked out at 79 °C.

The molecule `COC(=O)C(=O)CC(C)=O` displayed a melting point of 63 to 64 °C.

Molecule `CCC(=O)NC` registered a melting point of -30.9 °C.

On to `O=C1c2ccccc2C(=O)N1CCCCCBr`, for which the melting point is 60 °C.

In turn, `O=C(NC1(Cc2ccccc2)COCOC1=O)c1ccccc1` (racemic) gave a melting point of 176 to 178 °C.

In the case of `CCCCCCCCCCCCCCCCCC(=O)OCCO`, the melting point stood at 60.5 °C.

Molecule `C=C1C(C)C2C(Cc3ccccc3)NC(=O)C23OC(=O)CCC(O)CCCC(C)CC=CC3C1O` (stereo not drawn) displayed a melting point of 203 to 205 °C.

`Clc1cc2oc3cc(Cl)c(Cl)c(Cl)c3c2cc1Cl` returned a melting point of 225 °C.

As for `Cc1ccc(C(c2ccc(C)o2)c2ccccc2N=C=S)o1`, the melting point was found to be 65 °C.

Take `CCOC(=O)c1sc(SC)c2c1CCCC2=O`: the melting point was in the range of 108 to 111 °C.

As to `CC(C)(C)P(c1ccc2ccccc2c1-c1cccc2ccccc12)C(C)(C)C`, the melting point is 147 to 149 °C.

Turning to `NC1(C(=O)O)CC1`, the melting point was 257 °C.

Molecule `Oc1cc(C(F)(F)F)nc2ccc(Br)cc12` showed a melting point of 290 °C.

In turn, `CC12CCCC1C1CCC(CCC(=O)O)C(C)(CCC(=O)O)C1CC2` (stereo not drawn) displayed a melting point of 232 °C.

The molecule `O=P1(N(CCCl)CCCl)NCCCO1` (stereo not drawn) had a melting point of 51.5 °C.

The molecule `COc1cccc2sc(N)nc12` yielded a melting point of 156 °C.

Molecule `Nc1ccc2cc[nH]c2c1` returned a melting point of 73 °C.

For the molecule `Cc1occc1C(=O)CC#N`, the melting point lay within 95 to 97 °C.

For the molecule `CCOC(=O)c1sc(N)c(C(=O)OCC)c1C`, the melting point turned out to be 115 °C.

Take `CCCCOc1ccc(-c2nnc3sc(-c4ccc(Cl)c([N+](=O)[O-])c4)nn23)cc1`: the melting point came out at 70 °C.

As to `CC(C)(C)C(N)P(=O)(O)O` (stereo not drawn), the melting point lay in the range of 245 to 252 °C.

On to `CC12CC3(C)CC(C)(C1)CC(C(=O)O)(C2)C3`, for which the melting point was in the range of 149 to 151 °C.

For the molecule `CC1=NN(c2ccccc2)C(=O)C1C(=O)c1ccccc1` (stereo not drawn), the melting point lay in the range of 90 to 92 °C.

The molecule `COc1ccc(C(=O)C=CC(=O)O)cc1` displayed a melting point of 139 °C.

The molecule `Cc1cc[nH]c(=O)c1` returned a melting point of 130 °C.

`CC1=CP(=O)(c2ccccc2)CC1` (stereo not drawn) came in with a melting point of 58 to 62 °C.

`Nc1cccc(Cn2ccnc2)c1` displayed a melting point of 72 to 74 °C.

`CSSC` had a melting point of -85 °C.

As for `NCc1cccc(-c2ccccc2)c1`, the melting point was 28 to 30 °C.

For the molecule `C=CC(=O)Nc1ccc2c(c1)OCCOCCOCCOCCOCCO2`, the melting point fell in the range of 108 to 112 °C.

`NC(=O)/C(=N\Nc1cc(Cl)c(Cl)cc1Cl)c1nc2ccccc2s1` showed a melting point of 236 °C.

The melting point is the temperature of the solid-liquid transition.

For the origin of these results see a melting point compilation (Tetko et al.).
